From ChEMBL document CHEMBL5223164 (ACS Med Chem Lett, 2023)
pEC50, pIC50: −log10 of the molar value.

Assays:
[1] = target: Somatostatin receptor type 2 (Homo sapiens, UniProt P30874)
Description: Agonist activity at human SST2 receptor expressed in CHO-K1 cells assessed as inhibition of NKH477-induced intracellular cAMP accumulation incubated for 20 mins by HTRF assay

[2] = target: Voltage-gated inwardly rectifying potassium channel KCNH2 (Homo sapiens, UniProt Q12809); experiment: Inhibition of hERG by fluorescence polarization assay; assay type: toxicity
[3] = target: Somatostatin receptor type 4 (Homo sapiens, UniProt P31391); experiment: Agonist activity at human SST4 receptor expressed in CHO-K1 cells assessed as inhibition of NKH477-induced intracellular cAMP accumulation incubated for 20 mins by HTRF assay; assay type: cell-based
[4] = target: Somatostatin receptor type 5 (Homo sapiens, UniProt P35346); experiment: Agonist activity at human SST5 receptor expressed in CHO-K1 cells assessed as inhibition of NKH477-induced intracellular cAMP accumulation incubated for 20 mins by HTRF assay; assay type: cell-based
[5] = target: Somatostatin receptor type 1 (Homo sapiens, UniProt P30872); experiment: Agonist activity at human SST1 receptor expressed in CHO-K1 cells assessed as inhibition of NKH477-induced intracellular cAMP accumulation incubated for 20 mins by HTRF assay; assay type: cell-based
[6] = target: Somatostatin receptor type 3 (Homo sapiens, UniProt P32745); experiment: Agonist activity at human SST3 receptor expressed in CHO-K1 cells assessed as inhibition of NKH477-induced intracellular cAMP accumulation incubated for 20 mins by HTRF assay; assay type: cell-based
Cytochrome P450 2C19 [7] = target: T1, Cytochrome P450 2C19 (Homo sapiens, UniProt P33261); experiment: Inhibition of human CYP2C19 expressed in insect cell microsomes at 10 uM in presence of NADP+ by fluorescence based analysis; assay type: ADME, Microsome
Cytochrome P450 2D6 [8] = target: T2, Cytochrome P450 2D6 (Homo sapiens, UniProt P10635); experiment: Inhibition of human CYP2D6 expressed in insect cell microsomes at 10 uM in presence of NADP+ by fluorescence based analysis; assay type: ADME, Microsome
Cytochrome P450 2C9 [9] = target: T3, Cytochrome P450 2C9 (Homo sapiens, UniProt P11712); experiment: Inhibition of human CYP2C9 expressed in insect cell microsomes in presence of NADP+ by fluorescence based analysis
Cytochrome P450 2D6 [10] = target: T2, Cytochrome P450 2D6; experiment: Inhibition of human CYP2D6 expressed in insect cell microsomes in presence of NADP+ by fluorescence based analysis
Cytochrome P450 3A4 [11] = target: T4, Cytochrome P450 3A4 (Homo sapiens, UniProt P08684); experiment: Inhibition of human CYP3A4 expressed in insect cell microsomes at 10 uM in presence of NADP+ by fluorescence based analysis; assay type: ADME, Microsome
Cytochrome P450 2C19 [12] = target: T1, Cytochrome P450 2C19; experiment: Inhibition of human CYP2C19 expressed in insect cell microsomes in presence of NADP+ by fluorescence based analysis
Cytochrome P450 2C9 [13] = target: T3, Cytochrome P450 2C9; experiment: Inhibition of human CYP2C9 expressed in insect cell microsomes at 10 uM in presence of NADP+ by fluorescence based analysis; assay type: ADME, Microsome
Cytochrome P450 3A4 [14] = target: T4, Cytochrome P450 3A4; experiment: Inhibition of human CYP3A4 expressed in insect cell microsomes in presence of NADP+ by fluorescence based analysis
[15] = Half life in Beagle dog at 2.5 mg/kg, iv; details: in vivo
in vivo [16] = details: Sprague-Dawley, rat, po, 10 mg/kg
in vivo [17] = details: beagle, dog, po, 10 mg/kg
[18] = Clearance in Beagle dog at 2.5 mg/kg, iv; details: in vivo
[19] = Half life in Sprague-Dawley rat at 2.5 mg/kg, iv; details: in vivo
in vivo [20] = details: beagle, dog, po, 10 mg/kg; remark: listed apart in the source
[21] = target: Somatostatin receptor type 2 (Rattus norvegicus, UniProt P30680); experiment: Agonist activity at rat SST2 receptor
[22] = Volume of distribution at steady state in Sprague-Dawley rat at 2.5 mg/kg, iv; details: in vivo
[23] = target: Somatostatin receptor type 2 (Canis lupus familiaris, UniProt Q49LX6); experiment: Agonist activity at dog SST2 receptor
[24] = Clearance in Sprague-Dawley rat at 2.5 mg/kg, iv; details: in vivo
in vivo [25] = details: Sprague-Dawley, rat, po, 10 mg/kg; remark: listed apart in the source
[26] = Volume of distribution at steady state in Beagle dog at 2.5 mg/kg, iv; details: in vivo

Somatostatin receptor type 5, sequence (P35346 whole entry): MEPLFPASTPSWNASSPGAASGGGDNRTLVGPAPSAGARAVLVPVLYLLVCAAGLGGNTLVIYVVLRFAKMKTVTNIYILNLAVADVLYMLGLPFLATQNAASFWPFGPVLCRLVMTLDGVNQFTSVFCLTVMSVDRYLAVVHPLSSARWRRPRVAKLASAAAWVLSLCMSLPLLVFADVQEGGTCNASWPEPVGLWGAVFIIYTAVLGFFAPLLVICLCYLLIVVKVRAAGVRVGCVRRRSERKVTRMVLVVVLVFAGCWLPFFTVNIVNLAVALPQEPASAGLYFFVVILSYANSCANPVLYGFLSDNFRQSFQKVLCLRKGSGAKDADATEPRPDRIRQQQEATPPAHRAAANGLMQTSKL
Somatostatin receptor type 2 (Homo sapiens, UniProt P30874), sequence (P30874 whole entry): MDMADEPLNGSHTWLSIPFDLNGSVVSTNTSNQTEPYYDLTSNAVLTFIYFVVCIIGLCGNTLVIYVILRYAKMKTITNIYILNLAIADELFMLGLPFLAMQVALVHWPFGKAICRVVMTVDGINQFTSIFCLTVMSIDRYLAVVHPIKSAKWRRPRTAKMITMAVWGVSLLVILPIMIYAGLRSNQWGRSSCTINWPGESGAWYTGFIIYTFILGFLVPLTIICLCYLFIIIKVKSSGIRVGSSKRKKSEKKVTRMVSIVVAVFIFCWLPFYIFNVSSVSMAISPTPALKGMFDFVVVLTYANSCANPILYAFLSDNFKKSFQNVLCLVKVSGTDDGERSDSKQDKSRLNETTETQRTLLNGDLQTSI
Somatostatin receptor type 1, sequence (P30872 whole entry): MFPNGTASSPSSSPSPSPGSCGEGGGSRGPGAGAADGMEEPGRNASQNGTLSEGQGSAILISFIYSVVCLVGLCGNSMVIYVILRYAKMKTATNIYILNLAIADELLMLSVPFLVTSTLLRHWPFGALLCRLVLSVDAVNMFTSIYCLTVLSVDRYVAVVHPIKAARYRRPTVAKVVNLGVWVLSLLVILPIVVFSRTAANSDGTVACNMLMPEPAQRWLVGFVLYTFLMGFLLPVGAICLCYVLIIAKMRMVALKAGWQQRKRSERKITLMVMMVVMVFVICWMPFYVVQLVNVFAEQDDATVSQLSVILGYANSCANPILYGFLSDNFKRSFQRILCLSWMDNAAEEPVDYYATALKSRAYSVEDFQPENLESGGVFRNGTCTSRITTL
Somatostatin receptor type 4, sequence (P31391 whole entry): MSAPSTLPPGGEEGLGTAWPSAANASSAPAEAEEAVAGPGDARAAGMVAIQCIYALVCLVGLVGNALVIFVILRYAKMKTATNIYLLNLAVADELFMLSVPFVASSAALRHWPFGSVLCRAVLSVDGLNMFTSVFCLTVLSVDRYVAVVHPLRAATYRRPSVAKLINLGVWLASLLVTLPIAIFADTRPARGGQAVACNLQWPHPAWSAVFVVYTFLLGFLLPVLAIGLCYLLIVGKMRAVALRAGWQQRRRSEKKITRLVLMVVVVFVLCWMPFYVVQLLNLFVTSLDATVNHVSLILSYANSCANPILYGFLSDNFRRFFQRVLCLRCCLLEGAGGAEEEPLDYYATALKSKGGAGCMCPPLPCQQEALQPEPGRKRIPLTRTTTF
T2 sequence (P10635 whole entry): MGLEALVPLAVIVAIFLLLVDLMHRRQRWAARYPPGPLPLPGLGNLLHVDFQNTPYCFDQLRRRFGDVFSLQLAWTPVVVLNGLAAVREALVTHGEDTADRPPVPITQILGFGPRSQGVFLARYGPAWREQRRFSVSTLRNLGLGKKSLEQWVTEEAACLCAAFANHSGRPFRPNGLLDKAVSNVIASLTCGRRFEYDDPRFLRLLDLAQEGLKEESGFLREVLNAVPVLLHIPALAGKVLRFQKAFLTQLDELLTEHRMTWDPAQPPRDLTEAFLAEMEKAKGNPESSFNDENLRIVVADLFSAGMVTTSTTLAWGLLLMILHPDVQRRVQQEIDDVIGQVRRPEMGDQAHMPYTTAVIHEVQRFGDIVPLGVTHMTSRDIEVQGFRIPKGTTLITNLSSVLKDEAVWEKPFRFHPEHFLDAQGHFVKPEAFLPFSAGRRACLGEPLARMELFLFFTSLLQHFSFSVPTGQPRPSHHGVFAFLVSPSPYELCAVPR
Somatostatin receptor type 3, sequence (P32745 whole entry): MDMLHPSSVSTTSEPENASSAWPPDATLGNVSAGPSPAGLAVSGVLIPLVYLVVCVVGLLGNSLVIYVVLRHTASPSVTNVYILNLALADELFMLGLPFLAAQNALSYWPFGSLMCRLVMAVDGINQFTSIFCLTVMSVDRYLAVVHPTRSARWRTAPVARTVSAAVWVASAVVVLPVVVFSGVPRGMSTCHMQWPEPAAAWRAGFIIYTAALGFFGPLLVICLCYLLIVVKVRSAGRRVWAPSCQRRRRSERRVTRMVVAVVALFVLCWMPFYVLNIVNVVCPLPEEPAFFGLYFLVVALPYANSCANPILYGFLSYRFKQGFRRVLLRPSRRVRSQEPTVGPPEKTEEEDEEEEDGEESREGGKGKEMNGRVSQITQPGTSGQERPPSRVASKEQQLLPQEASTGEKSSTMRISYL
Voltage-gated inwardly rectifying potassium channel KCNH2, sequence (Q12809 whole entry): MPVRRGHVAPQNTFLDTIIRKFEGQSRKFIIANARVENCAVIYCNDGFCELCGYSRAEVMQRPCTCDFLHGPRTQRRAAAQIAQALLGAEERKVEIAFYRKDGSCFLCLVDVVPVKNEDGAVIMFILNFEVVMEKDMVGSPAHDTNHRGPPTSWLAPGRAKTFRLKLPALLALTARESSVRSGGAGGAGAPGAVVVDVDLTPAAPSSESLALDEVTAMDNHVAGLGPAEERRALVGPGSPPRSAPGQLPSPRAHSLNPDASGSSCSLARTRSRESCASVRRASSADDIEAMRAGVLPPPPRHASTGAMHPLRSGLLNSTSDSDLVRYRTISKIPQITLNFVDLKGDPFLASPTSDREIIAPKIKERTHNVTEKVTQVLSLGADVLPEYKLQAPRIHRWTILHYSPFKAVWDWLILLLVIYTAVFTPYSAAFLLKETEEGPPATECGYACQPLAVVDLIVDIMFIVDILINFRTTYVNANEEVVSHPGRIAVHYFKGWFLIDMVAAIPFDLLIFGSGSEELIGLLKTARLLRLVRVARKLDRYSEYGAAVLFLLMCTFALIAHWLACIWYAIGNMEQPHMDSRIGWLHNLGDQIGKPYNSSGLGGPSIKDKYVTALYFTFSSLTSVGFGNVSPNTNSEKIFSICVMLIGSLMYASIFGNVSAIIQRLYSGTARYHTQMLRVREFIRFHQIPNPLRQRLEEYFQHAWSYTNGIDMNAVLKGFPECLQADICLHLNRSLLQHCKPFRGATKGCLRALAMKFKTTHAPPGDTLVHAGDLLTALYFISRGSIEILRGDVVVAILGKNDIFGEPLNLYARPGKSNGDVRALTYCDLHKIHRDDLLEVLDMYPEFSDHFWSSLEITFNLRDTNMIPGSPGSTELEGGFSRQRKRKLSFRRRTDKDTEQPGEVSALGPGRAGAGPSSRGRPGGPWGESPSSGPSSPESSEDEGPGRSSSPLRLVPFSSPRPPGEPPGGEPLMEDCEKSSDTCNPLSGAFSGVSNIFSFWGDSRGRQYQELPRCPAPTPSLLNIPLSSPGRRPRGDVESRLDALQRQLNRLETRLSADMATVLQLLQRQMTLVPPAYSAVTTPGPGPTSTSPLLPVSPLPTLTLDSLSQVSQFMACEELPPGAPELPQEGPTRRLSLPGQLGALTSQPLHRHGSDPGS
T4 sequence (P08684 whole entry): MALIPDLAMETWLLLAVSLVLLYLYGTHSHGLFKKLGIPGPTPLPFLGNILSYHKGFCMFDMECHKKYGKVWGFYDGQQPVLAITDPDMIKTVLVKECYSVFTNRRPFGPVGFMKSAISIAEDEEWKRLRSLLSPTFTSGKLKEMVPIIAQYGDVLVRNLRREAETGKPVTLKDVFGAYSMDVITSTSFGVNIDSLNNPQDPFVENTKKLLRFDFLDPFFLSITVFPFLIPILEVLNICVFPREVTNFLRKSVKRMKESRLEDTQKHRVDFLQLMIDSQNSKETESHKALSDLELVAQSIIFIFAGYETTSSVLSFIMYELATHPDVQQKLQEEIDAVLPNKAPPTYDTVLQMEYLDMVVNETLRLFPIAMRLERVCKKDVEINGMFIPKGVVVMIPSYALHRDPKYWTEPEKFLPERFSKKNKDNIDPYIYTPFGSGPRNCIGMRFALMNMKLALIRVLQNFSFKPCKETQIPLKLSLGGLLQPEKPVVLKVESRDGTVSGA
T3 sequence (P11712 whole entry): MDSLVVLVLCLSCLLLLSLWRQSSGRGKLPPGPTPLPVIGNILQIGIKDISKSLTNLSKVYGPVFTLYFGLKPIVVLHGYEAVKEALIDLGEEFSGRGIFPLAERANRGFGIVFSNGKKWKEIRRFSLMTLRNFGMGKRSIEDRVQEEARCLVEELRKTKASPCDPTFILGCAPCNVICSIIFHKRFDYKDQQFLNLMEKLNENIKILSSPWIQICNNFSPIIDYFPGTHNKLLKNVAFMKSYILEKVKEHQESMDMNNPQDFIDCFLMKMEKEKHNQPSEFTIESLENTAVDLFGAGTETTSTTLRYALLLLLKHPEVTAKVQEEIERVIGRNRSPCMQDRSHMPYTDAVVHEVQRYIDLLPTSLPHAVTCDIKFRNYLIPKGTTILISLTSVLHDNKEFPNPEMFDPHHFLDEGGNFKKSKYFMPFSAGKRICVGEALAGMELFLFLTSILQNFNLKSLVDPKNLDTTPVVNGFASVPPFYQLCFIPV
Somatostatin receptor type 2 (Rattus norvegicus, UniProt P30680), sequence (P30680 whole entry): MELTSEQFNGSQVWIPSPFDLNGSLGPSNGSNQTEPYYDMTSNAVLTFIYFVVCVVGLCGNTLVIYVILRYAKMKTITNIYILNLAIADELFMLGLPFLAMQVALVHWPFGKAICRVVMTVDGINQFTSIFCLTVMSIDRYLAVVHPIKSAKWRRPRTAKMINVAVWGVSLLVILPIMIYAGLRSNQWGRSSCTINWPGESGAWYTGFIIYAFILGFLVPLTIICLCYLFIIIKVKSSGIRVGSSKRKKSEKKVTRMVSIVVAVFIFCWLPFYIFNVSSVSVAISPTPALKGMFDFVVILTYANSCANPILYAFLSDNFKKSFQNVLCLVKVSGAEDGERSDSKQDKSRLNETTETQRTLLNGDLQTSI

Structure (SMILES)	pEC50 [1]	pIC50 [2]	pEC50 [3]	pEC50 [4]	pEC50 [5]	pEC50 [6]	other results
N#Cc1cccc(-c2ccc3ncc(-c4cc(F)cc(F)c4)c(N4CCC(N)CC4)c3c2)c1	8.85						
NC1CCN(c2c(-c3cc(Cl)cc(Cl)c3)cnc3ccccc23)CC1	6.85						
N#Cc1cccc(-c2ccc3ncc(-c4cccc(F)c4)c(N4CCC(N)CC4)c3c2)c1O		< 5.00	6.00	< 6.00	< 6.00	< 6.00	
N#Cc1cc(F)cc(-c2ccc3ncc(-c4cc(F)cc(F)c4)c(N4CCC(N)CC4)c3c2)c1O	9.47	5.00	< 6.00	< 6.00	< 6.00		inhibition (INH) (Cytochrome P450 2C19 [7]): Not Active; inhibition (INH) (Cytochrome P450 2D6 [8]): Not Active; pIC50 (Cytochrome P450 2C9 [9]): 5.20; pIC50 (Cytochrome P450 2D6 [10]): < 5.00; inhibition (INH) (Cytochrome P450 3A4 [11]): Not Active; pIC50 (Cytochrome P450 2C19 [12]): 5.40; inhibition (INH) (Cytochrome P450 2C9 [13]): Not Active; pIC50 (Cytochrome P450 3A4 [14]): 5.00
NC1CCN(c2c(-c3cc(F)cc(F)c3)cnc3ccc(-c4ccccc4O)cc23)CC1	8.47						
NC1CCN(c2c(-c3cc(F)cc(F)c3)cnc3ccc(-c4cccc(F)c4O)cc23)CC1		6.00	7.60	< 6.00	< 6.00	< 6.00	
NC1CCN(c2c(-c3cc(F)cc(F)c3)cnc3ccc(-c4cccc(O)c4)cc23)CC1		> 6.00	7.80	< 6.00	< 6.00	< 6.00	
COc1cc(F)cc(-c2cnc3ccc(-c4cccc(C#N)c4O)cc3c2N2CCC(N)CC2)c1			< 6.00	< 6.00	< 6.00	< 6.00	
Cc1cc(F)cc(-c2cnc3ccc(-c4cccc(C#N)c4O)cc3c2N2CCC(N)CC2)c1	9.77		< 6.00	< 6.00	< 6.00	< 6.00	
N#Cc1cccc(-c2ccc3ncc(-c4cc(F)cc(F)c4)c(N4CCC(N)CC4)c3c2)c1O [PALTUSOTINE]			6.00	< 6.00	< 6.00	< 6.00	half-life [15]: 7.5 h; Cmax (in vivo [16]): 129 ng/mL; Cmax (in vivo [17]): 1370 ng/mL; inhibition (INH) (Cytochrome P450 2C19 [7]): Not Active; clearance [18]: 9.4 mL/min/kg; inhibition (INH) (Cytochrome P450 2D6 [8]): Not Active; pIC50 (Cytochrome P450 2C9 [9]): 5.10; pIC50 (Cytochrome P450 2D6 [10]): < 5.00; half-life [19]: 2.8 h; AUC(0-inf) (in vivo [20]): 10400 ng·h/mL; pEC50 [21]: 8.92; inhibition (INH) (Cytochrome P450 3A4 [11]): Not Active; pIC50 (Cytochrome P450 2C19 [12]): 5.30; Vd [22]: 1.5 L/kg; pEC50 [23]: 8.18; inhibition (INH) (Cytochrome P450 2C9 [13]): Not Active; clearance [24]: 9.1 mL/min/kg; AUC(0-inf) (in vivo [25]): 1610 ng·h/mL; pIC50 (Cytochrome P450 3A4 [14]): < 5.00; Vd [26]: 3.5 L/kg
